Assay results: paper PMC11714206, “Massively Parallel Screening of Toll/Interleukin‐1 Receptor (TIR)‐Derived Peptides Reveals Multiple Toll‐Like Receptors (TLRs)‐Targeting Immunomodulatory Peptides” (Advanced Science, 2024)

Target: T1, MyD88^TIR (Homo sapiens, UniProt Q99836)
T1 construct: MyD88 (residues 148–296); 6xHis; made in house; host or cells: E. coli BL21 (DE3)
Assay: T‐Surf phage library (P8 and P3) selection against MyD88^TIR, four rounds, NGS read counts
Format: binding
Details: for P8_MyD88 Rank (after) / P8_MyD88 Rank (before): P8 library; for P3_MyD88 Rank (after) / P3_MyD88 Rank (before): P3 library; for Population: P3_MyD88 pool: P3 T-Surf phage library, 4th round of selection against MyD88 TIR, share of NGS reads
Procedure, shortened: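 Read counts come from NGS of phage pools enriched over four selection rounds on the plate‐coated TIR domain (5 µg mL^−1). Each round: 1 h phage binding at room temperature after 0.2% BSA blocking, Tween washes, acid elution, amplification in E. coli TG1 with M13KO7 helper.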

[1] = selection against MyD88 TIR, rank by count after grouping
[2] = selection against MyD88 TIR, rank by count before grouping
[3] = P3_MyD88: rank by count after grouping
[4] = P3_MyD88: rank by count before grouping
[5] = P8_MyD88: rank by NGS read count after grouping
[6] = P8_MyD88: rank by NGS read count before grouping
[7] = P8_MyD88: rank by count after grouping
[8] = P8_MyD88: rank by count before grouping
[9] = selection against MyD88, rank after grouping
[10] = selection against MyD88, rank before grouping
[11] = selection against MyD88, rank by count after grouping
[12] = selection against MyD88, rank by count before grouping
[13] = 4R selection against MyD88, rank after grouping
[14] = 4R selection against MyD88, rank before grouping

T1 sequence (Q99836 148-296): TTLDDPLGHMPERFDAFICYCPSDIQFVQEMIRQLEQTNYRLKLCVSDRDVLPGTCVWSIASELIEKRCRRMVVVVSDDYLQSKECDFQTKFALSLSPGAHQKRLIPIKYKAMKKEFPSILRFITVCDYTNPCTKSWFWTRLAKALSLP

With YELDFSHFWLFDAGGDA the “P8_MyD88 Rank (after)” value [1] was 265 and the “P8_MyD88 Rank (before)” value [2] was 537.
In the case of NQCRNFLTAAANLSGW, the “Rank (after)” value [3] is reported as 164 and the “Rank (before)” value [4] is reported as 3465.
For YITWFDDIQQIQVFWV, the “Rank (after)” value [5] was 978 and the “Rank (before)” value [6] was 2116.
In the case of YELDFSHFWLFDGHATGEA, the “P8_MyD88 Rank (after)” value [1] is reported as 239 and the “P8_MyD88 Rank (before)” value [2] is reported as 1938.
For IDDDHLTYLVRLIEAL, the “Rank (after)” value [7] was 473 and the “Rank (before)” value [8] was 3638.
With DPQDLDCFYERLVSLL the “Rank (after)” value [7] was 169 and the “Rank (before)” value [8] was 1082.
For SSAWALNELVQIMKAW, the “Rank (after)” value [7] was 399 and the “Rank (before)” value [8] was 1289.
For DQQDLDWFYERLVSVF, the “P8_MyD88 Rank (after)” value [9] was 505 and the “P8_MyD88 Rank (before)” value [10] was 3051.
For PEKDNGGEIAFINNLV, the “P3_MyD88 Rank (after)” value [9] was 547 and the “P3_MyD88 Rank (before)” value [10] was 2710.
For SENYASSSWALTELVH, the “P3_MyD88 Rank (after)” value [11] was 723 and the “P3_MyD88 Rank (before)” value [12] was 2958.
LSRVPSVHEFRGFVGV was tested, and the “P3_MyD88 Rank (after)” value [9] was 573 and the “P3_MyD88 Rank (before)” value [10] was 2392.
With DHHLDLSRGKAIKPAILG the “P3_MyD88 Rank (after)” value [1] was 236 and the “P3_MyD88 Rank (before)” value [2] was 1997.
IDDDHLTYLVRLLYSLHVTE was tested, and the “Rank (after)” value [5] was 895 and the “Rank (before)” value [6] was 3629.
TYLWWVEDERGQEYFW was tested, and the “P8_MyD88 Rank (after)” value [1] was 221 and the “P8_MyD88 Rank (before)” value [2] was 370.
LVAHEISKKMKIFETI showed a Population of 0.00466%.
WPQDPQDLGWFYERLE was tested, and the “Rank (after)” value [7] was 416 and the “Rank (before)” value [8] was 899.
For LGYRWGDWEYFVGIEE, the “Rank (after)” value [5] was 1017 and the “Rank (before)” value [6] was 3222.
For LGYHWIEWEDFVVIED, the “Rank (after)” value [5] was 872 and the “Rank (before)” value [6] was 3293.
With EPQDLDWLYERLVSLF the “Rank (after)” value [5] was 1009 and the “Rank (before)” value [6] was 3148.
In the case of EPQDLDWFYERLVSLL, the “Rank (after)” value [7] is reported as 94 and the “Rank (before)” value [8] is reported as 478.
With DWGWGYLLPNLEGPAG the “P8_MyD88 Rank (after)” value [11] was 707 and the “P8_MyD88 Rank (before)” value [12] was 2481.
Work on EWIREQLRPALKERLP yielded a Population of 0.00466%.
LKGGDSYFWSKQPYAL was tested, and the “Rank (after)” value [3] was 385 and the “Rank (before)” value [4] was 2529.
GWIREHLWPLLKQRMT was tested, and the “P3_MyD88 Rank (after)” value [9] was 521 and the “P3_MyD88 Rank (before)” value [10] was 1877.
In the case of LVAHEISKMLKIFETI, the “P3_MyD88 Rank (after)” value [11] is reported as 681 and the “P3_MyD88 Rank (before)” value [12] is reported as 2284.
With DHQLDLPRCKAIKPEILG the “P3_MyD88 Rank (after)” value [9] was 482 and the “P3_MyD88 Rank (before)” value [10] was 2062.
With DPQEQLSFCERLITVF the “P8_MyD88 Rank (after)” value [11] was 743 and the “P8_MyD88 Rank (before)” value [12] was 2995.
With DPQELDWYYERLVSLF the “P8_MyD88 Rank (after)” value [1] was 241 and the “P8_MyD88 Rank (before)” value [2] was 2986.
With WALDLDWFYERLVSLF the “P8_MyD88 Rank (after)” value [1] was 225 and the “P8_MyD88 Rank (before)” value [2] was 426.
In the case of ELDFSHFWLFDAGGDAAI, the “Rank (after)” value [5] is reported as 956 and the “Rank (before)” value [6] is reported as 3183.
SENYATSPWRWMNWC was tested, and the “P3_MyD88 Rank (after)” value [9] was 541 and the “P3_MyD88 Rank (before)” value [10] was 2992.
With YELDFSHFWLFEARGDA the “P8_MyD88 Rank (after)” value [13] was 636 and the “P8_MyD88 Rank (before)” value [14] was 1944.
For DWVWDYLLPNGRPSG, the “Rank (after)” value [5] was 987 and the “Rank (before)” value [6] was 2420.
For LNVESWRQALERAGKL, the “Rank (after)” value [3] was 187 and the “Rank (before)” value [4] was 2402.
YELDFSHFSLFEGQAT was tested, and the “Rank (after)” value [7] was 463 and the “Rank (before)” value [8] was 1949.
With DPQDQDRFYERLVSLF the “P8_MyD88 Rank (after)” value [13] was 591 and the “P8_MyD88 Rank (before)” value [14] was 2968.
For YLKWGYPWFWDRLP, the “Rank (after)” value [3] was 142 and the “Rank (before)” value [4] was 572.
With DPQDLEWFYERLVILF the “Rank (after)” value [7] was 446 and the “Rank (before)” value [8] was 2849.
RTLLENLWASVDISHK was tested, and the “P3_MyD88 Rank (after)” value [11] was 732 and the “P3_MyD88 Rank (before)” value [12] was 2643.
YYLDTSHHRKQSGEFG was tested, and the “P3_MyD88 Rank (after)” value [1] was 246 and the “P3_MyD88 Rank (before)” value [2] was 1438.
YASSSWALDELLQILHARELF was tested, and the “Rank (after)” value [7] was 175 and the “Rank (before)” value [8] was 207.
In the case of NQWRNALTAAAYMSCR, the “Rank (after)” value [3] is reported as 463 and the “Rank (before)” value [4] is reported as 3492.
IDDDHLTYLVRLLLS was tested, and the “P8_MyD88 Rank (after)” value [13] was 597 and the “P8_MyD88 Rank (before)” value [14] was 3635.
In the case of WDFASNMEQLWERLYY, the “Rank (after)” value [5] is reported as 1014 and the “Rank (before)” value [6] is reported as 1625.
For NQWRFGSKVDAWKAAL, the “P3_MyD88 Rank (after)” value [9] was 577 and the “P3_MyD88 Rank (before)” value [10] was 3470.
With WDYASNVELFWGRMNY the “P8_MyD88 Rank (after)” value [13] was 586 and the “P8_MyD88 Rank (before)” value [14] was 1640.
For HLRKEFDKRLITSFKD, the “Rank (after)” value [3] was 387 and the “Rank (before)” value [4] was 2800.
In the case of LVAQEISKIKTMLATT, the “P3_MyD88 Rank (after)” value [9] is reported as 561 and the “P3_MyD88 Rank (before)” value [10] is reported as 2317.
For KARQFGALREEKLRAA, the “Rank (after)” value [3] was 425 and the “Rank (before)” value [4] was 3599.
